US9125406B2, “Methods and compositions for control of cabbage looper, trichoplusia ni” (Simon Fraser University, priority 2008, dated 2015)
Like-named read-outs stand apart in the source and are kept apart here.

How the values were obtained:
Trichoplusia ni larva = assay: Leaf-disc choice bioassay on cabbage: dose-response and blend assay (Example 12); type: in vivo
Protocol: T. ni larvae were raised from eggs (Insect Production Services, Natural Resources Canada) on a wheat-germ based artificial diet (McMorran diet, Insect Production Services, Natural Resources Canada), or raised from eggs from a laboratory colony of T. ni adults, at 22±1° C., 32-40% humidity, 9 h/15 h light/dark photoperiod.
Cabbage (Brassica oleracea L. cv. Golden Acre) plants were grown from seed (Pacific Northwest Seeds, Vernon, B.C.) in sandy loam soil in the laboratory at 21±1° C. beside a south-facing window. Plants received supplemental lighting from grow-lights emitting light of wavelengths 430 and 662 nm for 2 h/d. Plants were about 2-3 months old (with about 8-12 fully expanded leaves) at time of leaf collection for disc choice bioassays.
3c{3,6} was synthesized as described herein. Azadirachtin in a neem oil preparation (TreeAzin [5% azadirachtins A and B]) was obtained from BioForest Technologies Inc., Sault Step. Marie, Canada. Azadirachtin solutions were prepared fresh on the day of the bioassay to avoid degradation. Cetyl alcohol was obtained from Sigma, palmitic acid from BDH Chemicals Ltd., methanol (HPLC-grade) from Calcdon, and isopropanol (2-propanol-205, distilled in glass) from Calcdon Ammonium hydroxide solution was obtained from CanLab.
Blend and whole plant studies used a “vehicle” that consisted of palmitic acid (25 mM), cetyl alcohol (25 mM), and isopropanol (50%). The vehicle was prepared by dissolving palmitic acid and cetyl alcohol in isopropanol. The solution was neutralized with 1M NaOH, followed by step-wise dilution with water.
Leaf discs (disc area: 2.24 cm^2) cut with a no. 10 borer from cabbage plant leaves were painted on each side with 20 μL of treatment solution or solvent, using a Hamilton 25 μL glass syringe, and allowed to dry. One treatment and one control leaf disc were placed on opposite sides (5 cm apart) of a 9 cm diameter Petri dish containing moistened filter paper (Whatman #1, 70 mm). A fasting Trichoplusia ni larva was placed midway between the two leaf discs and oriented away from either disc. Replicate Petri dishes were kept in a plastic basin, protected from light, at 22±1° C. during the feeding period. Larvae fasted for approximately 7 h prior to the experiments. […]
Leaf disc areas consumed were measured using a Canon CanoS can LiDE 20 scanner, CanoScan Toolbox 4.1 software, Microsoft Office Picture Manager, and Un-Scan-It Gel and Graph Digitizing Software v. […]
In the dose-response study leaf-disc choice bioassays were performed with larvae in day 1 or 2 of the 3rd and 4th instar. […] There were not enough data points in the dose-response data for a sigmoidal fit, but the DC50 could be determined by linear regression analysis, as was the case for Akhtar et al. (2007). […]

T. ni neonates = assay: Greenhouse test on cabbage plants with T. ni neonates; type: in vivo, Trichoplusia ni; conditions: for mean larval recovery / weight reduction: 6 days
Protocol: […] Cabbage plants had 3-5 leaves. Each plant was sprayed (˜1 ml/leaf) and dried before the introduction of insects. There were 3 replicates of 5 plants for each treatment. Approximately nine T. ni neonates (<24 h old) were transferred on each plant. They were weighed after 6 days of feeding on the treatments. Numbers of larvae recovered from each treatment were also recorded. […] The mean larval recovery was not affected at the lowest concentration (0.0002%).

[1] = test system: third instar T. ni larvae; assay: Leaf disk choice feeding deterrence bioassay; type: in vivo, Trichoplusia ni; conditions: for pest or weed control at 50 µg/cm2, 50 µg/cm2 / pest or weed control at 50 µg/cm2: Trichoplusia, foliar; for pest or weed control at 50 µg/cm2: read-out: % deterrence; for DC50: feeding deterrence DC50, unit not given in Table 12
Text: Cabbage plants (Brassica oleraceae var. Stonehead) used in the bioassays were routinely grown in plastic pots with a mixture of sandy loam soil and peat moss (4:1) in a greenhouse at the University of British Columbia, Vancouver, BC, Canada. Leaves were collected from cabbage plants that were 5-6 weeks old.
T. ni larvae and moths were obtained from a long established colony (>50 generations) maintained on an artificial diet, Velvetbean Caterpillar Diet No. F9796 [Bio-Sery Inc. (Frenchtown, NIL)] in the insectary of the University of British Columbia (UBC).
(§1) Initial screening for feeding deterrent effects was conducted at 50 μg/cm^2 in feeding deterrent bioassays.
Larvae were given the choice of feeding on two leaf disks, one treated with 10 μL of a solution of the test substance painted on each side and the other treated with a carrier solvent alone. The number of larvae was 25 per treatment.
Feeding deterrence data (percent) for initial screening concentration were analyzed by analysis of variance (ANOVA) after arcsin transformation using statistics software (Statistix 7. Analytical Software, Statistix 7 for Windows 95, 98, NT, 2000. Analytical Software, Tallahassee).

T. ni moths [2] = assay: Oviposition choice (deterrence) bioassay on cabbage leaves; type: in vivo, Trichoplusia ni; conditions: for pest or weed control at 0.25 %: Trichoplusia, 48 h, read-out: OD (%) Mean ± SE N = 35-40
[3] = test system: third instar T. ni larvae; assay: whole plant or invertebrate; conditions: for mortality at 0.25 %: Trichoplusia, topical, 24 h
Protocol: as §1
Mortality was determined 24 h after spraying larvae directly with test solutions. Third instar T. ni larvae were sprayed in 90 mm×15 mm Petri dishes (Falcon) lined with Fisher Scientific filter paper (90 mm diameter). Small plastic hand spraying bottles (50 mL capacity) were used. Larvae were then transferred to Petri dishes (90 mm×15 mm) with a small piece of artificial diet. Each Petri dish contained 10 larvae. Three replicates, each consisting of 10 larvae, were used per treatment.

T. ni moths [4] = assay: Oviposition choice (deterrence) bioassay on cabbage leaves; type: in vivo, Trichoplusia ni; conditions: for % deterrence / Index = deterrence/mortality: Table 11; for % deterrence: BL mark not explained; for Index = deterrence/mortality: oviposition deterrence divided by mortality
Protocol: as §1
T. ni larvae were reared on normal diet from neonates (<24 h old) until pupation. Pupae were sexed and put in separate plastic containers until emergence. After eclosion, pairs of moths (one male and one female) were introduced into each cage with a control and a treated cabbage leaf. Pairs of moths (n=25) were used per treatment. Each leaf (approximately 100-110 cm^2) was sprayed with 0.5 mL of MeOH or a methanolic solution of the test chemical on each side. Eggs were counted on each cabbage leaf after 48 h.

[5] = Table 8, 50 μg/cm^2, read-out: F.D (%) Mean ± SE N = 25
[6] = feeding deterrence (FD), Table 12, non-toxic feeding deterrents
[7] = contact toxicity to larvae, negative or zero values replaced by 0.1 for the index (footnote b)
[8] = read-out: Mortality (%) N = 3 × 10, Table 8, at 0.25%
[9] = read-out: Mortality (%) N = 3 × 10, Table 10, at 0.25%
[10] = oviposition deterrence at 0.25%

SMILES | pest or weed control at 50 µg/cm2, 50 µg/cm2 [1, 5] | pest or weed control at 50 µg/cm2 [1, 6] | DC50 [1] | pest or weed control at 0.25 % (T. ni moths [2]; Table 8, at 0.25%) | % mortality [3, 7] | mortality at 0.25 % [3, 8] | further results
C=CCOc1ccc(OCCC)cc1 [3c{3, 6}, 1-allyloxy-4-propoxybenzene] | 100% | 100% | 0.5 μg/cm^2 | < 30% | −11 ^b % |  | FDI (%) mean (SE) (Trichoplusia ni larva; 45 ug/cm^2): 100 (0) b %; FDI (%) mean (SE) (Trichoplusia ni larva; 45 ug/cm^2, listed as 3c{3,6}): 100±0%; DC50 (Trichoplusia ni larva; 3rd and 4th instar larvae, 83% methanol, linear regression 9 to 45 μg/cm^2): 27 μg/cm^2; mean larval recovery (T. ni neonates; 0.0002% spray): not affected; weight of the larvae (T. ni neonates; 0.0002% spray, 6 days feeding on cabbage plants): not affected; mean larval recovery (T. ni neonates; 0.0005% spray): 66.7%; weight reduction (T. ni neonates; 0.0005% spray): 33.3%; mean larval recovery (T. ni neonates; 0.001% spray): 52%; weight reduction (T. ni neonates; 0.001% spray): 48%; growth reduction (T. ni neonates; 10 ppm, highest concentration): ~50%
CCCOc1cccc(OCCC(C)C)c1 [3b{3, 5}, 3-propoxy-1-isopentoxybenzene] | 97 ± 3% | 97% | 17 μg/cm^2 | 9 ± 17% | 10% | 10% | 
C=CCc1cc(OCCC)ccc1OC [5c{3, 1}, 1-methoxy-2-allyl-4-propoxy-benzene] |  | 92% | 9 μg/cm^2 |  | 6% |  | pest or weed control at 50 µg/cm2, 50 µg/cm2 ([1]; Table 10, 50 μg/cm^2, read-out: F.D (%) Mean ± SE N = 25): 92 ± 6%; pest or weed control at 0.25 % (T. ni moths [2]; Table 10, at 0.25%): 7 ± 15%; mortality at 0.25 % [3, 9]: 6.4%
C=CCOc1ccc(OCCC(C)C)cc1 [3c{5, 6}, 1-allyloxy-4-isopentoxybenzene] |  |  |  | -25 ± 12% |  |  | pest or weed control at 0.25 % (T. ni moths [4]; Trichoplusia, 48 h, Table 3, oviposition deterrence at 0.25%, 48 h, read-out: OD (%), mean ± SE (n = 25-33)): 18.8 ± 14.3%; pest or weed control at 50 µg/cm2, 50 µg/cm2 ([1]; Table 3, 1,4-dialkoxybenzenes, feeding deterrence at 50 μg/cm^2, read-out: FD (%), mean ± SE (n = 25)): 75.1 ± 12.7%; mortality at 0.25 % ([3]; read-out: mortality (%) (n = 3 × 10), Table 3, at 0.25%): 7%
C=CCOc1cccc(OC)c1 [3b{1, 6}, 1-allyloxy-3-methoxybenzene] | 66 ± 12% |  |  | 9 ± 14% |  | 33% | 
C/C=C(\C)C(=O)O[C@H]1C[C@@H](OC(C)=O)[C@@]2(C(=O)OC)CO[C@H]3[C@@H](O)[C@@](C)([C@]45O[C@@]4(C)[C@H]4C[C@@H]5O[C@@H]5OC=C[C@@]54O)[C@H]4[C@]1(CO[C@]4(O)C(=O)OC)[C@@H]32 [azadirachtin, reference compound] |  |  |  |  |  |  | FDI (%) mean (SE) (Trichoplusia ni larva; 4.9 ug/cm^2 in vehicle, fifth instar larvae): 43 (20) a %
COc1cccc(OCCC(C)C)c1 [3b{1, 5}, 1-methoxy-3-(3-methyl-butyloxy)benzene] | 89 ± 7% |  |  | 25 to 30% |  | 30% | 
C=CCOc1ccc(OCC)cc1 [3c{2, 6}, 1-allyloxy-4-ethoxybenzene] | 73 ± 12% |  |  | < 30% |  | 6.7% | 
CCN(CC)C(=O)c1cccc(C)c1 [DEET, reference compound] |  |  |  |  |  |  | F.D (%) Mean ± SE N = 25 ([1]; Table 8, 50 μg/cm^2): 60 ± 15 ^AB %; OD (%) Mean ± SE N = 35-40 (T. ni moths [2]; Table 8, at 0.25%): 23 ± 14%; Mortality (%) N = 3 × 10 ([3]; Table 8, at 0.25%): 7%
CCCCOc1ccccc1OCCC [3a{3, 4}, 1-propoxy-2-butoxybenzene] | 98 ± 2% | 98% | 21 μg/cm^2 | 37 ± 14% | 19% | 19% | % deterrence (T. ni moths [4]; [10]): 37 BL %; Index = deterrence/mortality (T. ni moths [4]): 1.9
C=CCOc1ccccc1OCCCC [3a{4, 6}, 1-allyloxy-2-butoxybenzene] | 92 ± 6% | 92% | 17 μg/cm^2 | 35 ± 17% | 19% | 19% | % deterrence (T. ni moths [4]; [10]): 35 BL %; Index = deterrence/mortality (T. ni moths [4]): 1.8
C=CCOc1cccc(OCC=C)c1 [3b{6, 6}, 1,3-Diallyloxy benzene] | 97 ± 3% | 97% | 20 μg/cm^2 | 25 to 30% | 13% | 13% | 
CCCOc1ccc(OCC)cc1 [3c{2, 3}, 4-ethoxy-1-propoxybenzene] | 100% | 100% | 33 μg/cm^2 | 10 ± 13% | 17% | 17% | 
C=CCc1cc(OC)ccc1OC [5c{1, 1}, 1,4-dimethoxy-2-allyl-benzene] |  |  | 20 μg/cm^2 |  |  |  | pest or weed control at 50 µg/cm2 [1]: 80%; pest or weed control at 50 µg/cm2, 50 µg/cm2 ([1]; read-out: F.D (%) Mean ± SE N = 25): 80 ± 11%; pest or weed control at 0.25 % (T. ni moths [2]): 14 ± 12%; mortality at 0.25 % [3, 9]: 38.9%; % mortality ([3]; in vivo): 39%
